# Test results as given in patent US11213517B2, “Pharmaceutical combination comprising a T-type calcium channel blocker” (IDORSIA PHARMACEUTICALS LTD, priority 2016, dated 2022).
# Where “and” joins values, the source holds several entries; their conditions need not be identical. Identical values can stand only once. Like-named read-outs stand apart in the source and are kept apart here.
# Assays:
# [1] = Plasma and brain concentrations of drugs at the end of the audiogenic seizure experiment (LC-MS); format: in vivo, mouse; details: for plasma and brain concentrations after administration of the compounds alone or in combination: juvenile DBA/2J mice; for concentration at 1 h: DBA/2J, mouse, oral
# Experimental: Briefly, blood was sampled from the vena cava caudalis with a syringe pre-filled with EDTA (ethylenediamine tetraacetic acid) as anticoagulant and centrifuged to yield plasma (for 10 minutes, at 4° C. and 5000 rpm (rounds per minute)). Brain was sampled and homogenized into one volume of cold phosphate buffer (pH 7.4). Following extraction with methanol, concentrations of the compound in plasma and brain were determined using liquid chromatography coupled to mass spectrometry.
# (§1) Different combination efficacy experiments are performed. […] Each experiment consists of four treatment groups: • 1. Vehicle (10% Polyethylene glycol400 (PEG400)/90% methylcellulose (0.5% in water; MC0.5%)), 3 h before exposure to the auditory stimulus+vehicle, 1 h before exposure to the auditory stimulus; • 2. COMPOUND 1 (in 10% PEG400/90% MC0.5%), 3 h before exposure to the auditory stimulus+vehicle, 1 h before exposure to the auditory stimulus; • 3. Vehicle, 3 h before exposure to the auditory stimulus+AED (in 10% PEG400/90% MC0.5%), 1 h before exposure to the auditory stimulus; and • 4. COMPOUND 1 (in 10% PEG400/90% MC0.5%), 3 h before exposure to the auditory stimulus+AED (in 10% PEG400/90% MC0.5%), 1 h before exposure to the auditory stimulus.
# [2] = tested on: audiogenic seizure-sensitive juvenile DBA/2J mice; experiment: Audiogenic seizure-sensitive juvenile DBA/2J mouse model of generalized tonic-clonic seizures; format: in vivo; parameters: key: 0 none, 1 wild running, 2 clonus, 3 hind-limb tonic extension; details: oral gavage, mean ± SEM
# Text: Audiogenic Seizure-Sensitive Juvenile DBA/2J Mouse Model of Generalized Tonic-Clonic Seizures
# The inbred DBA/2J mouse strain carries an increased general susceptibility for acute generalized convulsive seizures induced by either pharmacological, electrical or, as juvenile, auditory stimuli. At the age of 17 to 28 days (juvenile), they show tonic-clonic convulsions when exposed to a loud tone.
# Male juvenile DBA/2J mice (22-24 days old, body weight between 6.6 and 14.5 grams) were used. Each mouse was placed individually in the exposure chamber, an hemispheric acrylic glass dome (diameter: 50 cm) within a sound-attenuated box. After 60 seconds of habituation, an auditory stimulus of mixed frequency tone (15-20 kHz at 110 dB) was played from a speaker placed on the top center of the dome.
# The sound-attenuated box was equipped with lights and a camera system in order to observe and record the behavioral seizure response classified as following: • stage 0, no response • stage 1, wild running • stage 2, clonus • stage 3, tonic extension of the hind limbs.
# as §1
# [3] = analyte LTG, vehicle 3 h + LTG 10 mg/kg 1 h before stimulus, oral gavage, mean ± SEM
compound,measurement,setting,value
"Nc1nnc(-c2cccc(Cl)c2Cl)c(N)n1 [LTG, 6-(2,3-dichlorophenyl)-1,2,4-triazine-3,5-diamine]",plasma and brain concentrations after administration of the compounds alone or in combination,[1]; COMPOUND 1 and lamotrigine,similar
same,concentration at 1 h,"[1]; brain, 3 mg/kg, analyte LTG, vehicle 3 h + LTG 3 mg/kg 1 h before stimulus, oral gavage, mean ± SEM, read-out: Brain concentration total",1490 ± 128 ng/g
same,concentration at 1 h,"[1]; brain, 10 mg/kg, analyte LTG, vehicle 3 h + LTG 10 mg/kg 1 h before stimulus, oral gavage, mean ± SEM, read-out: Brain concentration total",3260 ± 144 ng/g
same,concentration at 1 h,"[1]; brain, 30 mg/kg, analyte LTG, vehicle 3 h + LTG 30 mg/kg 1 h before stimulus, oral gavage, mean ± SEM, read-out: Brain concentration total",8890 ± 248 ng/g
same,concentration at 1 h,"[1]; brain, analyte LTG, COMPOUND 1 10 mg/kg 3 h + LTG 10 mg/kg 1 h before stimulus, oral gavage, mean ± SEM, read-out: Brain concentration total",3690 ± 393 ng/g
same,concentration at 1 h,"[1]; brain, analyte LTG, COMPOUND 1 30 mg/kg 3 h + LTG 3 mg/kg 1 h before stimulus, oral gavage, mean ± SEM, read-out: Brain concentration total",1370 ± 100 ng/g
same,concentration at 1 h,"[1]; brain, analyte LTG, COMPOUND 1 30 mg/kg 3 h + LTG 10 mg/kg 1 h before stimulus, oral gavage, mean ± SEM, read-out: Brain concentration total",3660 ± 310 ng/g
same,concentration at 1 h,"[1]; brain, analyte LTG, COMPOUND 1 30 mg/kg 3 h + LTG 30 mg/kg 1 h before stimulus, oral gavage, mean ± SEM, read-out: Brain concentration total",8560 ± 853 ng/g
same,concentration at 1 h,"[1]; plasma, 3 mg/kg, analyte LTG, vehicle 3 h + LTG 3 mg/kg 1 h before stimulus, oral gavage, mean ± SEM, read-out: Plasma concentration total",293 ± 27 ng/mL
same,concentration at 1 h,"[1]; plasma, 10 mg/kg, analyte LTG, vehicle 3 h + LTG 10 mg/kg 1 h before stimulus, oral gavage, mean ± SEM, read-out: Plasma concentration total",930 ± 77 ng/mL
same,concentration at 1 h,"[1]; plasma, 30 mg/kg, analyte LTG, vehicle 3 h + LTG 30 mg/kg 1 h before stimulus, oral gavage, mean ± SEM, read-out: Plasma concentration total",3560 ± 165 ng/mL
same,concentration at 1 h,"[1]; plasma, analyte LTG, COMPOUND 1 10 mg/kg 3 h + LTG 10 mg/kg 1 h before stimulus, oral gavage, mean ± SEM, read-out: Plasma concentration total",859 ± 101 ng/mL
same,concentration at 1 h,"[1]; plasma, analyte LTG, COMPOUND 1 30 mg/kg 3 h + LTG 3 mg/kg 1 h before stimulus, oral gavage, mean ± SEM, read-out: Plasma concentration total",284 ± 18 ng/mL
same,concentration at 1 h,"[1]; plasma, analyte LTG, COMPOUND 1 30 mg/kg 3 h + LTG 10 mg/kg 1 h before stimulus, oral gavage, mean ± SEM, read-out: Plasma concentration total",1330 ± 102 ng/mL
same,concentration at 1 h,"[1]; plasma, analyte LTG, COMPOUND 1 30 mg/kg 3 h + LTG 30 mg/kg 1 h before stimulus, oral gavage, mean ± SEM, read-out: Plasma concentration total",2800 ± 475 ng/mL
same,Brain concentration total,[1]; [3],4054 ± 323 ng/g
same,Plasma concentration total,[1]; [3],1203 ± 77 ng/mL
same,Seizure stage (maximal seizure stage observed during exposure to auditory stimulus),[2]; vehicle 3 h + LTG 3 mg/kg 1 h before stimulus,1.9 ± 0.2
same,Seizure stage (maximal seizure stage observed during exposure to auditory stimulus),"[2]; vehicle 3 h + LTG 3 mg/kg 1 h before stimulus, listed as lamotrigine",2
same,Seizure stage (maximal seizure stage observed during exposure to auditory stimulus),[2]; vehicle 3 h + LTG 30 mg/kg 1 h before stimulus,0.2 ± 0.2 #
"CCCC(CCC)C(=O)O [VPA, 2-propylpentanoic acid]",plasma and brain concentrations after administration of the compounds alone or in combination,[1]; COMPOUND 1 and valproic acid,similar
same,concentration at 1 h,"[1]; brain, 30 mg/kg, analyte VPA, vehicle 3 h + VPA 30 mg/kg 1 h before stimulus, oral gavage, mean ± SEM, read-out: Brain concentration total",1260 ± 399 ng/g
same,concentration at 1 h,"[1]; brain, 100 mg/kg, analyte VPA, vehicle 3 h + VPA 100 mg/kg 1 h before stimulus, oral gavage, mean ± SEM, read-out: Brain concentration total",10100 ± 2040 ng/g
same,concentration at 1 h,"[1]; brain, 200 mg/kg, analyte VPA, vehicle 3 h + VPA 200 mg/kg 1 h before stimulus, oral gavage, mean ± SEM, read-out: Brain concentration total",44200 ± 4090 ng/g
same,concentration at 1 h,"[1]; brain, analyte VPA, COMPOUND 1 10 mg/kg 3 h + VPA 100 mg/kg 1 h before stimulus, oral gavage, mean ± SEM, read-out: Brain concentration total",14600 ± 2910 ng/g
same,concentration at 1 h,"[1]; brain, analyte VPA, COMPOUND 1 10 mg/kg 3 h + VPA 200 mg/kg 1 h before stimulus, oral gavage, mean ± SEM, read-out: Brain concentration total",34700 ± 4440 ng/g
same,concentration at 1 h,"[1]; brain, analyte VPA, COMPOUND 1 30 mg/kg 3 h + VPA 30 mg/kg 1 h before stimulus, oral gavage, mean ± SEM, read-out: Brain concentration total",1010 ± 117 ng/g
same,concentration at 1 h,"[1]; brain, analyte VPA, COMPOUND 1 30 mg/kg 3 h + VPA 100 mg/kg 1 h before stimulus, oral gavage, mean ± SEM, read-out: Brain concentration total",5950 ± 946 ng/g
same,concentration at 1 h,"[1]; brain, analyte VPA, COMPOUND 1 30 mg/kg 3 h + VPA 200 mg/kg 1 h before stimulus, oral gavage, mean ± SEM, read-out: Brain concentration total",27000 ± 6540 ng/g
same,concentration at 1 h,"[1]; plasma, 30 mg/kg, analyte VPA, vehicle 3 h + VPA 30 mg/kg 1 h before stimulus, oral gavage, mean ± SEM, read-out: Plasma concentration total",23000 ± 3610 ng/mL
same,concentration at 1 h,"[1]; plasma, 100 mg/kg, analyte VPA, vehicle 3 h + VPA 100 mg/kg 1 h before stimulus, oral gavage, mean ± SEM, read-out: Plasma concentration total",53700 ± 4040 ng/mL
same,concentration at 1 h,"[1]; plasma, 200 mg/kg, analyte VPA, vehicle 3 h + VPA 200 mg/kg 1 h before stimulus, oral gavage, mean ± SEM, read-out: Plasma concentration total",133000 ± 10700 ng/mL
same,concentration at 1 h,"[1]; plasma, analyte VPA, COMPOUND 1 10 mg/kg 3 h + VPA 100 mg/kg 1 h before stimulus, oral gavage, mean ± SEM, read-out: Plasma concentration total",57300 ± 3760 ng/mL
same,concentration at 1 h,"[1]; plasma, analyte VPA, COMPOUND 1 10 mg/kg 3 h + VPA 200 mg/kg 1 h before stimulus, oral gavage, mean ± SEM, read-out: Plasma concentration total",123000 ± 11700 ng/mL
same,concentration at 1 h,"[1]; plasma, analyte VPA, COMPOUND 1 30 mg/kg 3 h + VPA 30 mg/kg 1 h before stimulus, oral gavage, mean ± SEM, read-out: Plasma concentration total",19900 ± 1650 ng/mL
same,concentration at 1 h,"[1]; plasma, analyte VPA, COMPOUND 1 30 mg/kg 3 h + VPA 100 mg/kg 1 h before stimulus, oral gavage, mean ± SEM, read-out: Plasma concentration total",63400 ± 3210 ng/mL
same,concentration at 1 h,"[1]; plasma, analyte VPA, COMPOUND 1 30 mg/kg 3 h + VPA 200 mg/kg 1 h before stimulus, oral gavage, mean ± SEM, read-out: Plasma concentration total",110000 ± 11400 ng/mL
same,Brain concentration total,"[1]; analyte VPA, vehicle 3 h + VPA 100 mg/kg 1 h before stimulus, oral gavage, mean ± SEM",9278 ± 2535 ng/g
same,Brain concentration total,"[1]; analyte VPA, vehicle 3 h + VPA 200 mg/kg 1 h before stimulus, oral gavage, mean ± SEM",24746 ± 3564 ng/g
same,Seizure stage (maximal seizure stage observed during exposure to auditory stimulus),[2]; vehicle 3 h + VPA 30 mg/kg 1 h before stimulus,2.9 ± 0.1
same,Seizure stage (maximal seizure stage observed during exposure to auditory stimulus),[2]; vehicle 3 h + VPA 100 mg/kg 1 h before stimulus,2.7 ± 0.2 and 2.8 ± 0.2
same,Seizure stage (maximal seizure stage observed during exposure to auditory stimulus),"[2]; vehicle 3 h + VPA 100 mg/kg 1 h before stimulus, listed as valproic acid",3
